Measured values as given in ChEMBL document CHEMBL1201862, “PubChem BioAssay data set” (2004).
Calls of active or inactive are those of the source.

How the values were obtained:
H9c2 = test: cells; assay type: functional, cell-based; details: Rattus norvegicus, H9c2, Myocardium
Melanocortin receptor 4 = Melanocortin receptor 4 (Homo sapiens, UniProt P32245); assay type: functional, cell-based;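 note: Cell-based assay with luminescence read-out, confirmatory dose-response testing for agonist activity of biased ligands at MC4R; human U2OS cells with tagged receptor and beta-arrestin; potency of agonists that increase receptor coupling to beta-arrestin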
[1] = target: Low molecular weight phosphotyrosine protein phosphatase (Homo sapiens, UniProt P24666); assay type: functional; details: read-out: IC50_Mean;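 note: Dose-response confirmation assay measuring inhibition of LMPTP enzyme activity by fluorescence intensity read-out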
[2] = target: T1, Polyadenylate-binding protein 1 (Homo sapiens, UniProt P11940); test: MLLE binding blockers, Cy5 peptide tracer – biochemical, fluorescence polarization, Cy5-PAM2 peptide, secondary, miRNA deadenylation inhibitor project, dose response (AID 602260); assay type: functional; details: read-out: IC50_Mean
[3] = target: T1, Polyadenylate-binding protein 1; test: MLLE domain peptide-binding blockers, IC50 – biochemical, fluorescence polarization, FITC-PAM2 peptide, dose response (AID 602259); assay type: functional; details: read-out: IC50_Mean
Lethal factor = Lethal factor (Bacillus anthracis, UniProt P15917); test: High-throughput multiplex microsphere dose response for inhibitors of toxin protease, specifically Lethal Factor protease, compounds from Cherry Pick 02.; assay type: functional; details: read-out: EC50_MICROM
Bcl-2-related protein A1 = target: T2, Bcl-2-related protein A1 (Mus musculus, UniProt Q07440); assay type: functional;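 note: confirmatory dose–response counterscreen on Bfl-1, used to check hits from a UBC13 polyubiquitin inhibitor campaign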
T2 sequence (Q07440 whole entry): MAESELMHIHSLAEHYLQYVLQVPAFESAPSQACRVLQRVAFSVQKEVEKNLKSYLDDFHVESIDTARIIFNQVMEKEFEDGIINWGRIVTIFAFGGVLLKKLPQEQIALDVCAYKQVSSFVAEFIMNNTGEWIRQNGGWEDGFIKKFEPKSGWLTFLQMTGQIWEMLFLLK

[4] = target: T3, Ubiquitin-conjugating enzyme E2 N (Homo sapiens, UniProt P61088); assay type: functional
T3 sequence (P61088 whole entry): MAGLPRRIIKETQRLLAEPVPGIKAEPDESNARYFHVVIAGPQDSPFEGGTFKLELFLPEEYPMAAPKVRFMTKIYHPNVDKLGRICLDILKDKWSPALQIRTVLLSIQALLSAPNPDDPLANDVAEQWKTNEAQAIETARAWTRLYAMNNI

[5] = target: T3, Ubiquitin-conjugating enzyme E2 N; assay type: functional; remark: listed apart in the source
Insulin-degrading enzyme [6] = target: T4, Insulin-degrading enzyme (Homo sapiens, UniProt P14735); test: recombinant IDE activation, cell-free – biochemical, fluorescence polarization, counter-screen for IDE activator project, dose response (AID 588681)
T4 sequence (P14735 whole entry): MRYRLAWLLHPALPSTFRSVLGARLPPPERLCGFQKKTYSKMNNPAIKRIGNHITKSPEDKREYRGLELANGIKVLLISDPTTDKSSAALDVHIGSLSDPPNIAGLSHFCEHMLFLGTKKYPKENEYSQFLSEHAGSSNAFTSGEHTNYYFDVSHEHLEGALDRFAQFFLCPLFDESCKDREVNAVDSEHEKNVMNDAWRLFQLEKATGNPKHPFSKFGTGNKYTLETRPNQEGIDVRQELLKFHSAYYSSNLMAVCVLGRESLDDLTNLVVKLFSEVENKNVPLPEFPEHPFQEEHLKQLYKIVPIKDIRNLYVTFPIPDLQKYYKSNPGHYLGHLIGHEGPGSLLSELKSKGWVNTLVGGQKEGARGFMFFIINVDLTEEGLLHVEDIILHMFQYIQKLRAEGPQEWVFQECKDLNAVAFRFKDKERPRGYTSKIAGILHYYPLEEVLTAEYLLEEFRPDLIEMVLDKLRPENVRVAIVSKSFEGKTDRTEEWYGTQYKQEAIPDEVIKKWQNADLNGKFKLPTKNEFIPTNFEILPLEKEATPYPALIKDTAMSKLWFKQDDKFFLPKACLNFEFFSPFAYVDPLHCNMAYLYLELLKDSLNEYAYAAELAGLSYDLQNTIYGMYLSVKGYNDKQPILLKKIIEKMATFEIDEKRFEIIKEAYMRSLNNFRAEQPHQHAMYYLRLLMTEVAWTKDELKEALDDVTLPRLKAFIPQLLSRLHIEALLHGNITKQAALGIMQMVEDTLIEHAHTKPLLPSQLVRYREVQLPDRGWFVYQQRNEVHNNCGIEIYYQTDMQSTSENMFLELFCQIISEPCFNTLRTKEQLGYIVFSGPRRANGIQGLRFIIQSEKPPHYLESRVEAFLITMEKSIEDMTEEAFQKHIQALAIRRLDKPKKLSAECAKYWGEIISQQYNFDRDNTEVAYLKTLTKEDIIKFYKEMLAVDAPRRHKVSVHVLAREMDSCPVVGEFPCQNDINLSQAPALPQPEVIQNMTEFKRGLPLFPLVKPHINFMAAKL

[7] = target: T5, Apoptotic protease-activating factor 1 (Homo sapiens, UniProt O14727); assay type: functional
T5 sequence (O14727 whole entry): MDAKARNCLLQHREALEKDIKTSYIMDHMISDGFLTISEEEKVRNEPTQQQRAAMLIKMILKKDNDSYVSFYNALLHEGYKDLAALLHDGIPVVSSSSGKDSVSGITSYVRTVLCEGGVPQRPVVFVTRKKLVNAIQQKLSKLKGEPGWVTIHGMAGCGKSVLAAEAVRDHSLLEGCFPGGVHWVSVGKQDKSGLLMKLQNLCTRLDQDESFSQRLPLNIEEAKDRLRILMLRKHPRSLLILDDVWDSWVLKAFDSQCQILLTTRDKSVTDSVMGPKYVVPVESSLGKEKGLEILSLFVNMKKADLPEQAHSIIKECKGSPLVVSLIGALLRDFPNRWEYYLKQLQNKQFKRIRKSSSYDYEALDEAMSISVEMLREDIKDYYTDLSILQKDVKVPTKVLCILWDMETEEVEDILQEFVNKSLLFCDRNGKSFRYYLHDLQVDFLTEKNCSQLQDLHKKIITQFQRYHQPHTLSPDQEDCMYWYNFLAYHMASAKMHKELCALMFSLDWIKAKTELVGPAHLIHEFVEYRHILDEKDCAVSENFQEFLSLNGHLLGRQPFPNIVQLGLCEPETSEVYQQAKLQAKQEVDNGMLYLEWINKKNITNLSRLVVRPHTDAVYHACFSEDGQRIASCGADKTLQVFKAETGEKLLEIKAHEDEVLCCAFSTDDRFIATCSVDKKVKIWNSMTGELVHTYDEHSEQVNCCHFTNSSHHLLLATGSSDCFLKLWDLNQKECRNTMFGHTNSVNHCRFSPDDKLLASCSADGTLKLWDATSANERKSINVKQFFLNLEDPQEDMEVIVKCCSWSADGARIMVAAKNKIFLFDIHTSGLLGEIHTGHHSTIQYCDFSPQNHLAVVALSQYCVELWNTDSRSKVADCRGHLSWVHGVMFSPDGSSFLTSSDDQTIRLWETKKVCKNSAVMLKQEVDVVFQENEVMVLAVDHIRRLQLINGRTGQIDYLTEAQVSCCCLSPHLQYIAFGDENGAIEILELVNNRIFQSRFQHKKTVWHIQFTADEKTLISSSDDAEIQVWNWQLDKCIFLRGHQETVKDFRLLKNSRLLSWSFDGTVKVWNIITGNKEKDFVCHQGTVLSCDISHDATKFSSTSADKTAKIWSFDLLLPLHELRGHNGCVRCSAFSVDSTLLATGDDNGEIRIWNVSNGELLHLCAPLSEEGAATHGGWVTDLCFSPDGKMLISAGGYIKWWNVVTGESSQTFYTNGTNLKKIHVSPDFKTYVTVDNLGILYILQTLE

Insulin-degrading enzyme [8] = target: T4, Insulin-degrading enzyme; test: cellular IDE activation of Abeta substrate cleavage – fluorescence polarization, HEK cells, dose response (AID 588439); assay type: functional, cell-based
HEK293 [9] = test: membrane integrity loss in HEK cells – cell-based, fluorescence, cytotoxicity control for IDE activator project, dose response (AID 588440); assay type: functional; details: Homo sapiens;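 note: cytotoxicity by LDH release measuring loss of membrane integrity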
HEK293 [10] = test: optical interference in Abeta FP readout, dose response, artefact control for IDE activator project, biochemical, fluorescence polarization (AID 588442); assay type: functional, cell-based; details: Homo sapiens
[11] = target: Mitochondrial peptide methionine sulfoxide reductase (Bos taurus, UniProt P54149); assay type: functional;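 note: absorbance read-out, biochemical high-throughput dose-response screen for MsrA inhibitors, confirmatory; recombinant bovine MsrA coupled to E. coli TrxB with NADPH and selenocystamine; potency is for inhibitors of MsrA activity on DMSO substrate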
[12] = luciferase reporter signal suppression in cells – H4 neuroglioma cells, luminescence, dose response (AID 1990); assay type: functional, cell-based
[13] = system: Streptococcus sp. 'group A'; test: Streptococcus pyogenes SK(-)GAS viability under kanamycin – luminescence, BacTiterGlo, confirmation, counter-screen for streptokinase expression inhibitor project, dose response (AID 1900); assay type: functional, organism-based
[14] = Luminescence Cell-Based Dose Response HTS to Identify Inhibitors of 5'UTR Stem-Loop Driven Prion Protein mRNA Translation in H4 Neuroglioblastoma Cells. [Related pubchem assays: 1827 (Project Summary), 1813 (Primary HTS)]; assay type: functional
[15] = alpha-synuclein stem-loop luciferase translation blockers – H4 neuroglioma cells, luminescence, confirmation (AID 1988); assay type: functional, cell-based
Streptokinase A = target: T6, Streptokinase A (Streptococcus pyogenes serotype M1, UniProt P10520); test: viability-normalized secreted streptokinase activity reduction – plasminogen activation absorbance, OD405, dose response (AID 1914); assay type: functional, Streptococcus pyogenes M1 GAS;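 note: secreted streptokinase activity via plasminogen activation per viability signal from cell pellet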
T6 sequence (P10520 whole entry): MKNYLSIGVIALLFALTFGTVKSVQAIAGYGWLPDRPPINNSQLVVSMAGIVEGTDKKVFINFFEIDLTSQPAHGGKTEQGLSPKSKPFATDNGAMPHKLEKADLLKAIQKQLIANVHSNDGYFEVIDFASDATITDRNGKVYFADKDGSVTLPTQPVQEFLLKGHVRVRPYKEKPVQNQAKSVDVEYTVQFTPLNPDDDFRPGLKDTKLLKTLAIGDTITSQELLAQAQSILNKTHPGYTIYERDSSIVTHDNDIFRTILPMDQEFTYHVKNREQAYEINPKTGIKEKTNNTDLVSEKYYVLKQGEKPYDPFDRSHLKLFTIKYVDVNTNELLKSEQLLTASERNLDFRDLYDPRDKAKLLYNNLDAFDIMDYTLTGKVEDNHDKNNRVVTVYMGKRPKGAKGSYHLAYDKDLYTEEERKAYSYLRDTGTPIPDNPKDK

[16] = viability of PTEN-deleted HCT116 cells – cell-based, HCT116 PTEN knockout, dose response (AID 1047); assay type: functional;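 note: HCT116 colon tumor cells with PTEN knocked out; cells exposed to compound for 60 hours before readout; potency for loss of cell viability measured by luminescence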
[17] = viability of HCT116 lacking mutant beta-catenin – cell-based, human colon tumor, dose response (AID 1045); assay type: functional;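 note: HCT116 colon tumor cells with beta catenin knocked out; cells exposed to compound for 60 hours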
Streptococcus = test: GAS UMAA2166 growth inhibition – luminescence, BacTiterGlo, counter-screen for streptokinase expression inhibitor project, dose response (AID 1915); assay type: functional, organism-based;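 note: potency for reduction of bacterial viability or growth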
[18] = target: Neurotensin receptor type 1 (Homo sapiens, UniProt P30989); assay type: functional;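 note: Image-based confirmatory dose-response assay measuring agonist activity at NTR1; NTR1-expressing U2OS osteosarcoma cells imaged for beta-arrestin GFP spot formation; agonist potency where compounds increase beta-arrestin recruitment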
[19] = HEK-293T viability loss after treatment – luminescence, T-cell screen hits, cytotoxicity control for TCR NF-kB inhibitor project, dose response (AID 489026); assay type: functional, cell-based;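 note: cells exposed to compound about 14 hours before the viability readout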
INS1 = test: INS-1E survival protection against cytokine death – cell-based, luminescence, retest, dose response (AID 449756); assay type: functional; details: Rattus norvegicus;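 note: cell death triggered by IL-1 beta plus TNF-alpha plus IFN-gamma mixture; protective hits raise ATP signal compared with cytokine alone wells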
[20] = Trypanosoma cruzi growth suppression in host cells – NIH3T3 host cells, beta-gal luminescence, confirmation (AID 2044); assay type: functional, cell-based;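 note: intracellular parasites grown in NIH/3T3 mouse fibroblasts as host cells; luminescent beta-galactosidase reporter signal from transgenic T. cruzi replicating inside host cells; inhibitors lower the luminescence signal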
[21] = NIH3T3 cell viability loss – ATP luminescence, mouse fibroblasts, counter-screen, dose response (AID 2010); assay type: functional, cell-based;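 note: cells exposed to compound for about 90 hours before reading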
[22] = target: Photoreceptor-specific nuclear receptor (Homo sapiens, UniProt Q9Y5X4); assay type: functional, cell-based;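 note: CHO-S cells with Gal4-NCOR and VP16-NR2E3 two-hybrid luciferase reporter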
Fatty acid synthase [23] = target: T7, Fatty acid synthase (Homo sapiens, UniProt P49327); test: inhibition of human FAS-TE enzyme activity – biochemical, endpoint fluorescence intensity, uHTS hits, dose response (AID 624327); assay type: functional;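 note: fluorescence from hydrolysis of an O-methyl fluorescein acyl ester substrate by the enzyme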
Fatty acid synthase [24] = target: T7, Fatty acid synthase; test: inhibition of human FAS-TE enzyme activity – biochemical, kinetic fluorescence intensity, dose response (AID 624326); assay type: functional;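 note: rate of fluorescence rise from hydrolysis of a fluorogenic O-methyl fluorescein ester substrate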

T1 sequence (P11940 whole entry, the tested form may be a part): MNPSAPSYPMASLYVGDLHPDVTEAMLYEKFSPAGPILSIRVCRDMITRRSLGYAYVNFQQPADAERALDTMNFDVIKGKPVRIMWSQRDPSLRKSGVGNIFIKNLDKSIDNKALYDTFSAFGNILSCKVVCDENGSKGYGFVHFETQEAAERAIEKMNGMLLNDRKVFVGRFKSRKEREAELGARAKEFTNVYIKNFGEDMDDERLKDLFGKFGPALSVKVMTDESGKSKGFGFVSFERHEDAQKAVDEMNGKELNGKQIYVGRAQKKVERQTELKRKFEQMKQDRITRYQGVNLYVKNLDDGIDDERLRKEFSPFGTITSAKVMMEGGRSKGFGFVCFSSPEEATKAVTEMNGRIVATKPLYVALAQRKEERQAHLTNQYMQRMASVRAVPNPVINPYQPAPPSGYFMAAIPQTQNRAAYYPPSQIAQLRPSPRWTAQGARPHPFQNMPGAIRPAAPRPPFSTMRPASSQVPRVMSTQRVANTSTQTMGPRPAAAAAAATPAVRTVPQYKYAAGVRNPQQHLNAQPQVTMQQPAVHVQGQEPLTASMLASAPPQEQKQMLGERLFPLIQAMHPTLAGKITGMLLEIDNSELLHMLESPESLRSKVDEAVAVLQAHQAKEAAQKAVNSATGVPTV
Chain of Low molecular weight phosphotyrosine protein phosphatase (P24666 whole entry): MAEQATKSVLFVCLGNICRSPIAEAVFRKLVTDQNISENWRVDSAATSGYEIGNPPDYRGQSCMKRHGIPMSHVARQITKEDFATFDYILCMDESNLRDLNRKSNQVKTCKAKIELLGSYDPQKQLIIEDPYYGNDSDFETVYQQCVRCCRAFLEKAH
T7 sequence (P49327 whole entry): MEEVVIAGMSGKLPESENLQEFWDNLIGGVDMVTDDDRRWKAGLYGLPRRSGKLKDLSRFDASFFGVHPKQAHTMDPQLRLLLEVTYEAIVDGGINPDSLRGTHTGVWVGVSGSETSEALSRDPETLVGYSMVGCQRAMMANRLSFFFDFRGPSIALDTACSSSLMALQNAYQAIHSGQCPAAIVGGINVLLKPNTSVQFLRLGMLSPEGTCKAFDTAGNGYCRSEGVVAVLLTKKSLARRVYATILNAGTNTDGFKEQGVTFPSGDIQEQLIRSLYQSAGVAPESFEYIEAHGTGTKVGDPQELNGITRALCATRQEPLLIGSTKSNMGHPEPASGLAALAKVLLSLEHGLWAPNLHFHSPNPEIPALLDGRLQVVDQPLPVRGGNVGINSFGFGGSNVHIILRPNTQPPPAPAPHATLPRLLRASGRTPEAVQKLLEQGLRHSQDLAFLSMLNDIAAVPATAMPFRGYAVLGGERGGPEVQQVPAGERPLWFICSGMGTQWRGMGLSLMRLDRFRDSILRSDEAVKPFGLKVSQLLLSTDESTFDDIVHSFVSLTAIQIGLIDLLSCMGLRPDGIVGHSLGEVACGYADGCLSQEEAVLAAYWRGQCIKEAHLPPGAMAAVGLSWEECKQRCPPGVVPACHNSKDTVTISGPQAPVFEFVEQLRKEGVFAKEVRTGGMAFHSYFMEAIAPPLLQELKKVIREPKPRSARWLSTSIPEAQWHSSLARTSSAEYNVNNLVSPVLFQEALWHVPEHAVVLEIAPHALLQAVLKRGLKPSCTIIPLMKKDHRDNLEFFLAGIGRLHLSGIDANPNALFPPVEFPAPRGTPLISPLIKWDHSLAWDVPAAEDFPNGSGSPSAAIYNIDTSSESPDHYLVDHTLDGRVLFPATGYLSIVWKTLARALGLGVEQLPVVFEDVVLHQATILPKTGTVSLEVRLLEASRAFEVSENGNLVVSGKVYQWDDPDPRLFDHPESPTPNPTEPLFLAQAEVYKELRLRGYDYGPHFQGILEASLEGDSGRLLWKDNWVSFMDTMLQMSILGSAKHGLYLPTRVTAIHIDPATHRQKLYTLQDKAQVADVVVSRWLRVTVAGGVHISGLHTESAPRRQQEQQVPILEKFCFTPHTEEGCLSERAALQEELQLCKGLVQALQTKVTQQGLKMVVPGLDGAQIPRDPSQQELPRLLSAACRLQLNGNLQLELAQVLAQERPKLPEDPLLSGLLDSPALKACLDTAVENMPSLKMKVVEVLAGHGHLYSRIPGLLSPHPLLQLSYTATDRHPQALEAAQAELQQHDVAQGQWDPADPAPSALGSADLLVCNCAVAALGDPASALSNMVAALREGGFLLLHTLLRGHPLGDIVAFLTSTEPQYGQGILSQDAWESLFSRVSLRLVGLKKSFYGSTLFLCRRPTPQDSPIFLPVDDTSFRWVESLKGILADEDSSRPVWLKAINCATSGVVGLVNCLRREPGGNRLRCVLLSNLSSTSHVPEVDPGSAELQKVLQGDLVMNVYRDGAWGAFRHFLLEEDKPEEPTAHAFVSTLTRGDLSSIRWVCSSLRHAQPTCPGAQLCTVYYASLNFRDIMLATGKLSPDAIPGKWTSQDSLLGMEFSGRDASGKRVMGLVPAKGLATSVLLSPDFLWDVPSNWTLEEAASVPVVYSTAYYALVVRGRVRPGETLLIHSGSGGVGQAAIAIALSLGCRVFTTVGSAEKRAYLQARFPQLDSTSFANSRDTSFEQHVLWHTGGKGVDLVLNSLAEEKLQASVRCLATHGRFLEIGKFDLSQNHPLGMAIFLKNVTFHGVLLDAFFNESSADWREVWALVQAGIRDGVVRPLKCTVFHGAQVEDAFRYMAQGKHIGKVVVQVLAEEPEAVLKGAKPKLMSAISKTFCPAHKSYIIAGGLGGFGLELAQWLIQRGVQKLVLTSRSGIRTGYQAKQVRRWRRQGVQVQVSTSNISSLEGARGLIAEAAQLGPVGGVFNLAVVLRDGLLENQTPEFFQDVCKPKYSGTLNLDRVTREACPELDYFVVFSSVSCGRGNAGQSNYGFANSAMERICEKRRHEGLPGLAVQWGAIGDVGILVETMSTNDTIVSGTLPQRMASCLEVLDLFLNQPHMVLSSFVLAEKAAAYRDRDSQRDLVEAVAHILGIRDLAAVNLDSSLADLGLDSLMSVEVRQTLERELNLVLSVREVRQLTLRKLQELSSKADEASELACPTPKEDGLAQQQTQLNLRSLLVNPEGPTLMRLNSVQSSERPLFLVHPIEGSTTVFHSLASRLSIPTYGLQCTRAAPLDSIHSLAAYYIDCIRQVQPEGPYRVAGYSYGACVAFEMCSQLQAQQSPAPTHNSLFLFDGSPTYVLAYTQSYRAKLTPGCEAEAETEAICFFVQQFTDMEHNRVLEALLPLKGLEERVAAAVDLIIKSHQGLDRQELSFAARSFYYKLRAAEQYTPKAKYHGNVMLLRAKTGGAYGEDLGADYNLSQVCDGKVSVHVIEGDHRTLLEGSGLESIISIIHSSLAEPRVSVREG
Chain of Neurotensin receptor type 1 (P30989 whole entry): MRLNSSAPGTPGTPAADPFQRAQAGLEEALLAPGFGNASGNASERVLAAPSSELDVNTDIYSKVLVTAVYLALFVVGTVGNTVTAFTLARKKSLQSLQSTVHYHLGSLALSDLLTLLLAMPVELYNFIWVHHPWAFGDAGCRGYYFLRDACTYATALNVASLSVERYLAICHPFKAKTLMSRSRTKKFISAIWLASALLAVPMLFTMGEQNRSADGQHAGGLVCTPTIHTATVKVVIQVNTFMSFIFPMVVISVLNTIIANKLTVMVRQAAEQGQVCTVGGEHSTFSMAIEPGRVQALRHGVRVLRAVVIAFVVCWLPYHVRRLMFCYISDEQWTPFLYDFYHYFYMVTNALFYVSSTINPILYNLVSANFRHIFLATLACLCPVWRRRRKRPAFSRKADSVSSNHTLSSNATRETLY
Chain of Mitochondrial peptide methionine sulfoxide reductase (P54149 whole entry): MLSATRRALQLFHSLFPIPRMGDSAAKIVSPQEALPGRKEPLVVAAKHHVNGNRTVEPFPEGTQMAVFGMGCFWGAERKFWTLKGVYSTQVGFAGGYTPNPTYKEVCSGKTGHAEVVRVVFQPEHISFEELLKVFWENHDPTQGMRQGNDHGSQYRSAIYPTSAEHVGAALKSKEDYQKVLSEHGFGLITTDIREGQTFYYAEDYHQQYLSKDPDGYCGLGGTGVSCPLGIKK
Chain of Melanocortin receptor 4 (P32245 whole entry): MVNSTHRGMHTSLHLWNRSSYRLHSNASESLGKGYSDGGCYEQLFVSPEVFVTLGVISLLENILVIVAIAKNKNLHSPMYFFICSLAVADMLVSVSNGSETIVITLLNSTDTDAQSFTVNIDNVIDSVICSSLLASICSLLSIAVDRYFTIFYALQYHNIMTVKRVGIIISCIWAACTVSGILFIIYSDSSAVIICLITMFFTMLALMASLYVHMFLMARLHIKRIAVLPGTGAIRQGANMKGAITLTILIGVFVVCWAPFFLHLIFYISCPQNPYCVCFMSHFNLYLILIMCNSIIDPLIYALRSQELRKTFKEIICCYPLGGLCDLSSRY
Chain of Photoreceptor-specific nuclear receptor (Q9Y5X4 whole entry, the tested form may be a part): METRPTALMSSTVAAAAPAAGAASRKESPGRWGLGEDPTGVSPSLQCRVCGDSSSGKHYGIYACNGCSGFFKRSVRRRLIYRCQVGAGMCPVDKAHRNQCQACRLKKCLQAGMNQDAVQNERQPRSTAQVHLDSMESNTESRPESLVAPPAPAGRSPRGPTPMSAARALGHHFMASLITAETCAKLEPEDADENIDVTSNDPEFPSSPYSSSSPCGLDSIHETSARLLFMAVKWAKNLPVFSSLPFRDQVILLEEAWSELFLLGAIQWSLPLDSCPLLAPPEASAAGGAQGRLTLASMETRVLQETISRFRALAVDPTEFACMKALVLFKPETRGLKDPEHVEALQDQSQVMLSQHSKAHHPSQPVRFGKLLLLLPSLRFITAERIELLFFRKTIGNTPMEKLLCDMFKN

## CC(=O)Nc1ccc(-c2csc(NC(=O)Nc3ccccc3)n2)cc1
H9c2
  IC50: 38.3 µM (inactive)
Melanocortin receptor 4
  EC50: > 89.2 µM (inactive)

## CCn1cc(C(=O)O)c(=O)c2cc(F)c(N3CCN(C(=S)NC(=O)c4cccc(F)c4)CC3)cc21
[1]
  IC50: 8.61 µM (active)

## CCOC(=O)C(C)Sc1nnc(Cc2cc(O)nc(O)n2)n1-c1ccc(Cl)cc1 (stereo unspecified)
[2]
  IC50: > 66 µM (inactive)
[3]
  IC50: > 66 µM (inactive)

## Cn1ccc2c(-c3ccc(F)nc3)cc3c(c21)C1CCC3C1 (stereo unspecified)
Lethal factor
  EC50: 10.6 µM (active)

## Nc1nnc2cc(Br)ccc2n1
[2]
  IC50: > 66 µM (inactive)
[3]
  IC50: 35.7 µM (inactive)

## C#CCOCCOCCOCCNc1nc(N2CCN(C(=O)CCCCCCCCCCNC(=O)[C@H]([C@@H](C)CC)n3cc(CCCCCN)nn3)CC2)nc(N2CCN(C(=O)CCCCCCCCCCNC(=O)[C@H](CO)n3cc(CCCCCN)nn3)CC2)n1
Bcl-2-related protein A1
  IC50: > 20 µM (inactive)
[4]
  IC50: 4.22 µM (active)
[5]
  IC50: 2.64 µM (active)
Insulin-degrading enzyme [6]
  EC50: 9.67 µM (active)
[7]
  IC50: 25 µM (active)
Insulin-degrading enzyme [8]
  EC50: > 6.08 µM (active)
HEK293 [9]
  IC50: 9.37 µM (active)
HEK293 [10]
  EC50: > 56 µM (inactive)

## CCCOc1ccc(C(=O)NC(=S)N2CCN(c3ncc4c(=O)c(C(=O)O)cn(CC)c4n3)CC2)cc1
[1]
  IC50: 9.82 µM (active)

## COc1cc(OC)c(OC)cc1/C=N/NC(=O)c1ccc(=O)n(C)c1
[11]
  IC50: 102 µM (inactive)

## COc1ccc(Cn2c(SCc3ccc(C)cc3)nc3cc(OC)c(OC)cc3c2=N)cc1Cl
[12]
  EC50: > 120 µM (not active)
[13]
  EC50: 2.52 µM (active)
[14]
  EC50: > 120 µM (not active)
[15]
  EC50: > 120 µM (not active)
Streptokinase A
  EC50: 5.92 µM (active)
[16]
  EC50: 3.54 µM (active)
[17]
  EC50: 3.32 µM (active)
Streptococcus
  EC50: 8.22 µM (active)
[18]
  EC50: 5.35 µM (active)
[19]
  IC50: > 80 µM (inactive)
Insulin-degrading enzyme [6]
  EC50: > 54.7 µM (inactive)
Insulin-degrading enzyme [8]
  EC50: 15.5 µM (inactive)
INS1
  AC50: 3.85 µM (active)
HEK293 [9]
  IC50: 15.9 µM (inactive)
HEK293 [10]
  EC50: > 54.7 µM (inactive)

## CCc1cccc2sc(N3CCN(C(=O)c4ccc([N+](=O)[O-])o4)CC3)nc12
[13]
  EC50: 5.99 µM (active)
Streptokinase A
  EC50: 2.38 µM (active)
[20]
  EC50: 0.307 µM (active)
[21]
  EC50: 5.4 µM (active)
Streptococcus
  EC50: 12.1 µM (active)
[22]
  IC50: 4.71 µM (active)
Fatty acid synthase [23]
  IC50: 13.3 µM (active)
Fatty acid synthase [24]
  IC50: 12.9 µM (active)
